Columns and labels:
Format in all cases: in vivo, Caenorhabditis elegans
[1] = test system: DAF-16 fusion protein [TJ356 daf-16::daf-16-gfp]; assay: DAF-16::GFP localization; settings: ThT or curcumin treatment, no heat shock
Description: For fluorescent microscopy, TJ356 zIs356 IV [daf-16::daf-16-gfp+rol-6] or CF2189 Is001(skn-1::gfp+rol-6) were paralyzed with 1 mM levamisole mounted on 1% agarose pads and imaged using Olympus BX51 (60× objective) and HCImage software (Hamamatsu). For immunofluorescence, N2, […], CB1157 unc-54(e1157) or CL4176 dvIs27 [myo-3::Aβ(3 to 42)-let 3′UTR(pAF29); pRF4 (rol-6(su1006))] worms were treated for 24-36 h with or without 50 μM ThT at 25° C. After this period the worms were collected, rinsed, and fixed in 4% paraformaldehyde overnight. […] Paramyosin and perlecans were detected with primary monoclonal antibodies 5-23 and MH3 (developed by Henry Epstein and Robert H. Waterston and obtained from the Developmental Studies Hybridoma Bank developed under the auspices of the NICHD and maintained by The University of Iowa, Department of Biology, Iowa City, Iowa 52242) and AlexaFluor 633 goat anti-mouse (Molecular Probes) as secondary antibody. Soluble oligomers and Aβ peptide were detected with anti polyclonal All (Invitrogen) and 6E10 monoclonal (Covance) primary antibodies, respectively, with AlexaFluor 568 goat anti-rabbit and AlexaFluor 488 goat anti-mouse (Molecular Probes) as secondary antibodies. Images were processed and quantified by using Image Analyst MK II (Novato, Calif.).

unc-52 RNA = assay: Real time quantitative PCR, unc-52; settings: 50 μM ThT, 12 days of treatment
Description: (§1) Twelve single adults from control or 50 μM ThT populations were picked after 3, 6 and 12 days of treatment into 5 μl of distilled water and flash frozen until extraction. Individual worms were extracted using the RNeasy Micro Kit, TissueLyser and QIAcube (Qiagen). Using the manufacturer's standard Animal Tissue protocol, each sample was homogenized in buffer RLT/Bme (Qiagen) on the TissueLyser (6 min total at 20 Hz). Samples, reagents and columns were then loaded into the QIAcube robot, and processed using the “RNeasy Micro—Animal tissues and cells—DNase digest” program. Each sample was then eluted in 14 μl of Nuclease-free water. cDNA templates for the Real Time PCR reactions were made using a combination of Message Sensor RT kit (Ambion's) and TaqMan PreAmp Master Mix (Applied Biosystems). The entire worm sample was added to the RT reaction and reversed transcribed at 50° C. for 20 min, using Message Sensor's “Two Step RT-PCR Protocol” (sample RT's were randomized). Then 2.5 μl of the cDNA sample was pre-amplified with a “4×Multiplex Primer Mix” for 14 cycles using TaqMan PreAmp master mix and protocol (ABI). Two modifications were made to ABI's protocol: 1. the reaction volume was reduced to 10 μl and 2. after pre-amplification, each cDNA sample was diluted 1:5 with 1XTE Buffer (Promega). cDNA samples were stored at −20° C. until needed. […]

HSP-70 = assay: Western blot HSP-70; settings: 50 μM ThT, 4 and 7 days of treatment
Description: Peptide corresponding to amino acids 110-145 ([…]; SEQ ID NO:1) of HSP-16.2 was used to commercially synthesize antiserum (Invitrogen). Briefly, KLH-peptide was emulsified by mixing with an equal volume of Freund's adjuvant and injected into three subcutaneous dorsal sites for a total of 0.1 mg of peptide for immunization. The animals (rabbits) were bled, the blood allowed to clot and the serum collected by centrifugation. Monoclonal HSP-70 and Polyclonal HSF-1 primary antibodies were from stressgen (N27F3-4 and SPA-901, respectively).
Worms were transferred to siliconized eppendorf tubes, washed once in S-basal and frozen in liquid N2. Standard SDS-PAGE was performed using (4-12%) NOVEX gels and IVIES running buffer. Following transfer PVDF (BioRad) membranes were incubated with antisera (1:10000) or primary antibodies (1:1000) diluted in blocking buffer and then with secondary, goat anti-rabbit IgG antibody/horseradish peroxidase conjugate (Pierce), diluted 1:25000. Detection was undertaken with chemiluminescent reagents (SuperSignal, Pierce) and standard autoradiography.

chn-1 RNA = assay: Real time quantitative PCR, chn-1; settings: 50 μM ThT, 3 and 6 days of treatment
Description: as §1

## Cc1ccc2c(c1)sc(-c1ccc(N(C)C)cc1)[n+]2C.[Cl-] [ThT, 4-(3,6-dimethyl-1,3-benzothiazol-3-ium-2-yl)-N,N-dimethylaniline chloride]
[1]
  DAF-16::GFP localization: did not alter the normal localization
unc-52 RNA
  unc-52 RNA levels: decreases the levels of unc-52
HSP-70
  HSP-70 protein levels: up-regulated
chn-1 RNA
  chn-1 RNA levels: up-regulated

From patent publication US20110081428A1, “Use of thioflavin-like compounds to increase life span and/or health span” (priority 2009, published 2011)
